Measurements taken from patent US20230104487A1, “11-(4-CHLOROPHENYL)-4-(2,3-DIHYDRO-1H-INDOLE-1-CARBONYL)-3,11-DIMETHYL-5,10,DIOXATRICYCLO[7.4.0.0,2,6,]TRIDECA-1,3,6,8-TETRAEN-13-ONE AND DERIVATIVES AS DESTABILIZER OF CRY1 FOR THE TREATMENT OF CIRCADIAN RHYTHM ASSOCIATED DISEASES AND DISORDERS” (KOC UNIVERSITESI, priority 2019, published 2023).
“Also recorded” adds a separate entry of the source.

Legend:
Assay type in all cases: cell-based
CRY1 [1] = biological target: T1, CRY1 (Homo sapiens, UniProt Q16526); experiment: Protein immunoblot, unsynchronized U2-OS cells, CRY1; details: Western blot
T1 construct: To evaluate the effect of FORMULA I on the endogenous protein and mRNA level of clock genes; endogenous in cells; host or cells: U2-OS
T1 sequence (Q16526 1-586): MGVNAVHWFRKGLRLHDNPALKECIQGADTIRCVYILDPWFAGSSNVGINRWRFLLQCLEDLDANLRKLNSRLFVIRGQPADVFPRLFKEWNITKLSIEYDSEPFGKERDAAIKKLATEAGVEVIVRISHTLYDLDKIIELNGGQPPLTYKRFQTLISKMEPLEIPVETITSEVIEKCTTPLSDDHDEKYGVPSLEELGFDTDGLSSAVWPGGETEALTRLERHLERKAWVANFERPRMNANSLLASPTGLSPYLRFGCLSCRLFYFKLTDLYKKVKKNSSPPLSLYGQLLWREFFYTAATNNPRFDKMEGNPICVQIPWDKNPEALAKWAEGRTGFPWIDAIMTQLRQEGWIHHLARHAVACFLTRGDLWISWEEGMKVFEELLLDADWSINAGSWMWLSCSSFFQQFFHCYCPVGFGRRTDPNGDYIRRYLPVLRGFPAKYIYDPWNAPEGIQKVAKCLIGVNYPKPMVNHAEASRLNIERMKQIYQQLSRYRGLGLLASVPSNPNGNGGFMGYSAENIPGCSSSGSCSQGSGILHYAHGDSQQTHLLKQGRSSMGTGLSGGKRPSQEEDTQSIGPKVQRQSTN
Description: (§1) Cells were lysed in RIPA buffer (50 mM Tris, 150 mM NaCl, 1% Triton-X, 0.1% SDS) with fresh Protease inhibitor cocktail (PIC). After centrifugation at 13000 rpm for 15 minutes at 4° C., supernatant was used to determine the protein amount using Pierce Protein Assay (Thermo Scientific) according to the manufacturer's instruction. Mice liver samples were homogenized and lysed with Dounce homogenizer and RIPA buffer. After homogenization samples were incubated 10 minutes on ice. After centrifugation 13000 rpm 15 minutes at 4° C. supernatant was used for the whole cell lysate. Subcellular fractionation of liver samples: Liver samples were homogenized with cytosolic lysis buffer (10 mM HEPES pH 7.9, 10 mM KCl, 0.1 mM EDTA, 0.05% NP40, proteasome inhibitor) by pipetting 40 times with a cut tip. Then samples were incubated 10 minutes on ice and centrifuged for 3 minutes at 3000 rpm at 4° C. Supernatant was saved in a new tube, and pellet was processed for the nuclear fraction. Supernatant was centrifuged at 13000 rpm for 3 minutes at 4° C. where new supernatant saved as the cytosolic fraction. […] ECL buffer system (Advansta WesternBright) was used to visualize HRP chemi-luminescence via BioRad ChemiDoc Touch visualizer.

CRY1 [2] = biological target: T1, CRY1; experiment: Protein immunoblot, synchronized U2-OS cells, CRY1; details: 10 μM, 80-92 h
Description: FIGS. 3A-3G are an illustration of FORMULA I decreased CRY1 level in synchronized U2-OS cells. Confluent U2-OS cells were synchronized by 2 h treatment with dexamethasone ([…]) and medium replaced with fresh medium containing FORMULA I or solvent (DMSO final 0.5%). Cells were harvested at indicated time points. FIGS. 3A-3B show lysed cells were analyzed via protein immunoblot technique. […] CRY levels in DMSO control divided by that of in FORMULA I treated samples were reported (mean±SEM, n=4). FIGS. 3C-3G show cells were subjected to reverse-transcription-quantitative polymerase chain reaction (RT-qPCR). […] Expression level of genes was normalized according to the expression level of that gene at 72ndh. (Data represent the mean±SEM, n=3 with duplicates ***: p<0.001 **: p<0.005, *: p<0.05 versus DMSO control by two-way ANOVA).
Cells were lysed in RIPA buffer (50 mM Tris, 150 mM NaCl, 1% Triton-X, 0.1% SDS) with fresh Protease inhibitor cocktail (PIC). After centrifugation at 13000 rpm for 15 minutes at 4° C., supernatant was used to determine the protein amount using Pierce Protein Assay (Thermo Scientific) according to the manufacturer's instruction. Mice liver samples were homogenized and lysed with Dounce homogenizer and RIPA buffer. […] ECL buffer system (Advansta WesternBright) was used to visualize HRP chemi-luminescence via BioRad ChemiDoc Touch visualizer. […]

CRY2 = biological target: T2, CRY2 (Homo sapiens, UniProt Q49AN0); experiment: Protein immunoblot, unsynchronized U2-OS cells, CRY2; details: Western blot
T2 construct: To evaluate the effect of FORMULA I on the endogenous protein and mRNA level of clock genes; endogenous in cells; host or cells: U2-OS
T2 sequence (Q49AN0 1-593): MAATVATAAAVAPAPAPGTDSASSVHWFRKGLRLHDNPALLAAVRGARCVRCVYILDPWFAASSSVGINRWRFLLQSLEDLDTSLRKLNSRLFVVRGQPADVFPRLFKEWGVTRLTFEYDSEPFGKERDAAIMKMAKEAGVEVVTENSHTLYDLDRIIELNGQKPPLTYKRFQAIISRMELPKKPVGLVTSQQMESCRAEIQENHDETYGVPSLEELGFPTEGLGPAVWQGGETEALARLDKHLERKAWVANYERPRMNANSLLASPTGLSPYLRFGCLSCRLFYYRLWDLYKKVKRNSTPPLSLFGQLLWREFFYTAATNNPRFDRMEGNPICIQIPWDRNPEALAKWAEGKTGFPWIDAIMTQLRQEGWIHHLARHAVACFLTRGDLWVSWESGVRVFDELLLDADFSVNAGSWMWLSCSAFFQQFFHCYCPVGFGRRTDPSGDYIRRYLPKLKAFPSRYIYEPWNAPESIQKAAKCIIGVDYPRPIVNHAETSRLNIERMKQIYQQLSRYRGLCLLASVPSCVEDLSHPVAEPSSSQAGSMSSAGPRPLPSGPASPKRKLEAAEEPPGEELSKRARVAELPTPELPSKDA
Description: as §1

Cc1c(C(=O)N2CCc3ccccc32)oc2ccc3c(c12)C(=O)CC(C)(c1ccc(Cl)cc1)O3 (stereo not drawn) [FORMULA I, 11-(4-chlorophenyl)-4-(2,3-dihydro-1H-indole-1-carbonyl)-3,11-dimethyl-5,10,dioxatricyclo[7.4.0.0,2,6,]trideca-1,3,6,8-tetraen-13-one]
steady-state level of CRY1 (CRY1 [1]): level of CRY1 reduced; also recorded: decreased the steady-state level of CRY1 | CRY1 protein level (CRY1 [2]): decreased the protein level of CRY1 | level of CRY2 (CRY2): CRY2 levels were comparable
